In series [1] the test system is washed platelets. Put plainly: Light transmission aggregometry of washed platelets stimulated with serum from patients with VITT. Format: cell-based, human. How it is done: Washed platelets were prepared from citrated whole blood as described in Nicolson et al., Low-dose BTK inhibitors selectively block platelet activation by CLEC-2, Haematologica 106(1):208-19 (2021). Briefly; citrated blood was taken from healthy, drug-free volunteers and mixed (1:10, v/v) with acid citrate dextrose and centrifuged (200×g, 20 minutes, RT) to produce platelet rich plasma. Platelet rich plasma was then centrifuged (1000×g, 10 minutes, RT) in the presence of 0.2 μg/mL prostacyclin. The platelet pellet was resuspended in modified-Tyrode's-HEPES buffer, prepared as described in Nicolson et al., acid citrate dextrose and 0.2 μg/mL prostacyclin and centrifuged (1000×g, 10 minutes, RT). Platelet pellet was resuspended in modified-Tyrode's-HEPES buffer to a concentration of 2×10^8/mL and allowed to rest for 30 minutes prior to use.
Aggregation was measured in washed platelets (2×10^8/mL) under stirring conditions (1200 rpm) at 37° C. using a light transmission aggregometer (Model 700, ChronoLog) for 20 minutes following stimulation with serum (1:15, v/v). Washed platelets were pre-incubated with IV.3 F(ab) for 5 minutes or with inhibitors for 10 minutes prior to stimulation with serum. Modified-Tyrode's-HEPES buffer or dimethyl sulfoxide (DMSO) was used as vehicle.

The next series has as its target BTK enzyme (Homo sapiens, UniProt Q06187). As to conditions: healthy volunteers; doses which provide 100% occupancy of the BTK enzyme; cited from earlier work.
For series [2] the following is noted: Phase 2 trial; cited from earlier work.
A short description of series [3]: Pharmacokinetics in humans after oral administration. Format: in vivo, human.
Series [4] concerns platelets. Put plainly: Normal platelet function in vitro. Format: cell-based.
For series [5] the following is noted: in comparison to first and second generation BTKi; cited from earlier work.
Series [6] in a line: Bleeding in thrombocytopenic patients. The series is classed as in vivo, human.
Another series has as its system 251-kinase panel. Put plainly: 251-kinase panel selectivity. Format: biochemical. As to conditions: 1 μM.
Series [7] relates to washed platelets. The series can be described thus: Light transmission aggregometry, aggregation to collagen. Format: cell-based, human. The settings on record: 3 μg/mL collagen; results not shown. How it is done:
[…] Modified-Tyrode's-HEPES buffer or dimethyl sulfoxide (DMSO) was used as vehicle.
We tested if the Btk inhibitor rilzabrutinib (rilzabrutinib powder prepared in DMSO (final 0.02% DMSO) to achieve a concentration of 0.5 μM) could prevent platelet aggregation in patient sera.

The next series has as its system platelets via FcγRIIA. As to conditions: both low and high concentrations of heparin; cited from earlier work.
The test system of series [8] is platelets. Put plainly: Heparin Induced Platelet Activation (HIPA) assay (HITAlert kit). Format: cell-based, human. From the text: See, e.g., Greinacher et al., Thrombotic thrombocytopenia after ChAdOx1 nCov-19 vaccination, N Engl J Med, doi:10.1056/NEJMoa2104840 (2021); Schlutz et al., Thrombosis and thrombocytopenia after ChAdox1 nCoV-19 vaccination, N Engl J Med, doi:10.1056/NEJMoa2104882 (2021). Cross-sectional brain imaging verified the presence of cerebral venous sinus thrombosis (CVST) and intracerebral haemorrhage in three patients, and ischemic stroke caused by internal carotid artery thrombus in one patient.

The conditions of series [9]: human, in vivo; cited from earlier work.
The mark [10] stands for this setting: HITAlert at presentation, serum of the individual VITT patient, normal range ≤ 8%.

Several values for one entry are separate records, joined by “and”; a condition that tells them apart may be missing. Equal entries are not always repeated. Entries after “also recorded” stand apart in the source; their conditions may differ. Where a SMILES comes first, the peptide text is derived from it. Bridges are numbered along the chain shown (N, C = ends). [ ]: non-standard residue; d: D form. hArg = N=C(N)NCCCC[C@H](N)C(=O)O; Mpa = O=C(O)CCS

Results on 8 molecules are retold here after patent publication US20240207277A1, “Methods For Treating Drug and Vaccine Induced Immune Thrombocytopenia by Administering Specific Compounds” (Principia Biopharma Inc., priority 2021, published 2024).

BTK enzyme, sequence (Q06187 whole entry): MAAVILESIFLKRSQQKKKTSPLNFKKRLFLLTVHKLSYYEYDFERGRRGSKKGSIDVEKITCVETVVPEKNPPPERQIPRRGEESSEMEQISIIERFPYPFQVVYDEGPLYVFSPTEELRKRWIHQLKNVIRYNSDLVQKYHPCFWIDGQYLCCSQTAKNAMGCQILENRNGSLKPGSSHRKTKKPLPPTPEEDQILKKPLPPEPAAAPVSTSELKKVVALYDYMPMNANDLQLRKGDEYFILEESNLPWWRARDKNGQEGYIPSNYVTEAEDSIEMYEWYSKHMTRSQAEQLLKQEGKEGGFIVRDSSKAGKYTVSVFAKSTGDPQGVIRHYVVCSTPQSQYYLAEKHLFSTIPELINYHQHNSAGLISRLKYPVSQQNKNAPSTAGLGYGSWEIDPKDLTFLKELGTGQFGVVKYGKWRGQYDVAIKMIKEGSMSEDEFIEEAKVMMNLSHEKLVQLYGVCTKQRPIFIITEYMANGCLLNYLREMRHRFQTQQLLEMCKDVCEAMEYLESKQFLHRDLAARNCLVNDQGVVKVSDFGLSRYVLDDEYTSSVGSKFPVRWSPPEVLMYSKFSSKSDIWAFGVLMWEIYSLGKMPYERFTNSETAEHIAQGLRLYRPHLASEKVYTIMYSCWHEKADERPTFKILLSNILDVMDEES

Turning to `N=C(N)c1ccc2cc(OC(=O)c3ccc(N=C(N)N)cc3)ccc2c1` [FUT-175], the “effect on aggregation to patient sera (complement inhibitors)” value in the series on washed platelets [1] (data not shown) is “minor effects”.
Take `C=CC(=O)Nc1cccc(Nc2nc(Nc3ccc(OCCOC)cc3)ncc2F)c1` [CC-292, spebrutinib]: the tolerability result on BTK enzyme is recorded as “well tolerated”.
As to `C=CC(=O)N1CCC(CNc2ncnc(N)c2-c2ccc(Oc3ccccc3)cc2)CC1` [evobrutinib], the “efficacy for multiple sclerosis” value in series [2] is “demonstrated efficacy”.
One may read the half-life as how long it takes for the measured level to halve. A higher half-life goes with slow decline. On to `CC(C)(C=C(C#N)C(=O)N1CCC[C@@H](n2nc(-c3ccc(Oc4ccccc4)cc3F)c3c(N)ncnc32)C1)N1CCN(C2COC2)CC1` [Compound (I), (R)-2-[3-[4-amino-3-(2-fluoro-4-phenoxy-phenyl)pyrazolo[3,4-d]pyrimidin-1-yl]piperidine-1-carbonyl]-4-methyl-4-[4-(oxetan-3-yl)piperazin-1-yl]pent-2-enenitrile], for which the “platelet aggregation induced by serum from patients with VITT” value with washed platelets [1] (rilzabrutinib 0.5 μM, 10 minutes pre-incubation, washed platelets 2×10^8/mL, serum 1:15 v/v, n=7) is on record as “prevented platelet aggregation; also recorded: blocks platelet aggregation”. In addition, the absorption entry in series [3] is listed as “rapidly absorbed”. In series [3] (human, in vivo), this molecule had a half-life of 3 to 4 h. The “impact on normal platelet function” value in the series with platelets [4] was “no impact”. Also, the “cross-reactivity with other molecules” value in series [5] was “minimal cross-reactivity”. In series [6], the association with bleeding entry is reported as “has not been associated with bleeding”. The “number of kinases with >90% inhibition” value with 251-kinase panel stood at 6 kinases. In addition, in the series on washed platelets [7], the aggregation to collagen result was “fully inhibited”.
Turning to `N=C(N)NCCCC[C@@H]1NC(=O)CCSSC[C@@H](C(N)=O)NC(=O)[C@@H]2CCCN2C(=O)[C@H](Cc2c[nH]c3ccccc23)NC(=O)[C@H](CC(=O)O)NC(=O)CNC1=O` [eptifibatide] ([Mpa][hArg]GDWPC-NH2; disulfide 1-7), the “response (aggregation) to patient sera” value in the series with washed platelets [1] (eptifibatide 9 μM, data not shown) is “inhibited”.
For heparin, the “aggregation to VITT patient sera, high heparin” value in the series on washed platelets [1] (high heparin concentration (100 U/mL)) is recorded as “blocked aggregation”. Also, the “aggregation to VITT patient sera, low heparin” value with washed platelets [1] (low (0.2 U/mL) concentration of heparin, 7 patients) is “prevented (5 of 7 patients) or delayed (2 of 7 patients)”. The “platelet activation by immune complexes” value with platelets via FcγRIIA is recorded as “blocked”. Further, in the series on platelets [8] (setting [10]), the “Platelet activation with serum and excess heparin” value was 0.64% and 3.68% and 1.43% and 4.38%; the “Platelet activation with serum and heparin” value was 18.53% and 18% and 36.5% and 22.63%. In the series with platelets [8] (sera of four patients tested), the “platelet activation by patient sera, high concentration of heparin” value is listed as “blocked” and the “platelet activation by patient sera, low concentration of heparin” value is recorded as “reduced”. The “deleterious effect in 1 patient with VITT” value in series [9] is recorded as “without deleterious effect”.
On to `CC[C@H](C)[C@H](N)C(=O)N[C@H]1CSSC[C@@H](C(=O)N[C@H](C(N)=O)[C@@H](C)O)NC(=O)[C@H](CCCN=C(N)N)NC(=O)[C@H](Cc2cnc[nH]2)NC(=O)[C@H](Cc2cnc[nH]2)NC(=O)CNC(=O)[C@H](Cc2c[nH]c3ccccc23)NC(=O)[C@H](CC(=O)O)NC(=O)[C@H](CCC(N)=O)NC(=O)[C@H](C(C)C)NC(=O)[C@H](C(C)C)NC1=O` [compstatin], for which, in the series with washed platelets [1] (data not shown), the “effect on aggregation to patient sera (complement inhibitors)” value is “minor effects”.

B1: PF4: platelet factor 4 (protein, UniProt P02776 32-101, looked up)
Platelet factor 4: EAEEDGDLQCLCVKTTSQVRPRHITSLEVIKAGPHCPTAQLIATLKNGRKICLDLQAPLYKKIIKKLLES
For the molecule B1, the “enhancement of partial aggregation to patient 2 serum” value in the series with washed platelets [1] (10 μg/mL PF4, data not shown) was “No enhancement”.
